Test results taken from patent US9561228B2 (Celgene Avilomics Research, Inc., priority 2013, dated 2017).

Experiments:
[1] = tested on: HT-29 cells (colorectal adenocarcinoma); test: Inhibition of cancer cell proliferation, HT-29 (CellTiterGlo, 72 hours); assay type: cell-based; conditions: Homo sapiens
Outline: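 HT-29 cells seeded at 3000/well, then treated with 3-fold serial dilutions from a 5,000 nM two-fold solution in serum-free RPMI1640, untreated wells as control, for 72 h at 37° C. CellTiterGlo luminescence converted to cell number via a standard curve; GI50 from percent inhibition versus untreated growth.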

[2] = tested on: ERK1/2 phosphorylation of p90RSK in HT29 cells; test: pRSK MSD Assay in HT29 cells; assay type: cell-based; conditions: Homo sapiens, HT-29, read-out: ERK1/ERK2 PRSK MSD HT29 EC50
Outline: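 Serum-starved HT29 cells (0.1% FBS overnight) treated with test compound for 120 min at 37° C, then lysed with protease and phosphatase inhibitors. Phospho-p90RSK quantified by MSD sandwich immunoassay: RSK capture antibody, phospho-RSK detection antibody plus Sulfo-tagged antibody, electrochemiluminescence read.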

Erk1 = target: T1, Erk1 (Homo sapiens, UniProt P27361); test: Protein Mass Modification Assay (intact protein MALDI, 60 min, 10-fold excess of compound); assay type: binding
T1 construct: purchased Millipore 14-439
Outline: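 Human Erk1 was incubated 60 min at room temperature with a 10-fold molar excess of compound, then analysed as intact protein by MALDI with sinapinic acid matrix. The centroid mass shift versus untreated protein was divided by compound molecular weight to give percent modified protein.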

MEK1 activated ERK1 = target: T2, MEK1 activated ERK1 (Homo sapiens, UniProt P27361); test: Omnia continuous-read kinase assay for potency against MEK1 activated ERK1; assay type: biochemical; conditions: MEK1 activated ERK1, ATP at KM; read-out: ERK1 Omnia WT ATP KM IC50
T2 construct: purchased Millipore (Billerica, Mass.) 14-439-K
Outline: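 Apparent IC50 came from initial reaction slopes (RFU vs time) plotted against log inhibitor with a variable-slope fit. Reactions were started with ERK1 (4 nM final) added to 50 μM ATP, roughly at its appKM, and 10 μM Sox-conjugated ST17 peptide in 20 mM Tris pH 7.5, 5 mM MgCl2. Fluorescence was monitored every 71 seconds.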

ERK1/ERK2 = test: Measurement of Erk occupancy with biotinylated covalent probe I-299 (HT-29); assay type: cell-based; conditions: HT-29 cells
Method: Measurement of Erk Occupancy with Biotinylated Covalent Probe
This experiment measured occupancy of the ERK1/ERK2 target by compounds according to the invention. This experiment was conducted using the Mesoscale Discovery test kit (Cat. # N45107B). One day before the assay, cells were split and added at 50,000 cells per well to a flat-bottom 96 well plate in 200 μl of growth medium. The next day, the medium was discarded, 100 μl medium containing test compound was added, and the plate was incubated at 37° C. for 120 minutes. The plate was rinsed once with PBS, and 50 μl lysis buffer with test compound was added. The plate was incubated at 4° C. for 30 min, and 30 μl of lysate was transferred to a plate to capture total and phosphor-Erk. Biotinylated probe 1-299 was diluted in lysis buffer and added to each well to a final concentration of 0.2 μM. The plate was incubated for 2 hr under constant shaking at room temperature. The plate was washed 3 times with MSD wash buffer. To detect the biotinylated probe bonding, tagged streptavidin was added (Mesoscale Discovery, Cat. # R32AD-1) at 1 μg/ml, 25 μl/well, followed by a 60 min incubation under shaking. The plate was washed 3 times, 150 μl MSD Read Buffer (Mesoscale Discovery, Cat. R61TX) was added and the plate was read in a plate reader manufactured by MSD. Percent occupancy by test compound at Erk was calculated by comparing the chemiluminescence readings from treated cells as compared to the chemiluminescence readings in untreated controls (which are defined as 100% probe bonding or 0% test compound occupancy). The amount of covalent probe signal divided by the amount of ERK signal for samples with no test compound treatment represents the maximum probe signal (MPS). In samples treated with test compound prior to covalent probe, the ratio of probe signal to ERK signal (the test probe signal, TPS) was reduced by the degree of target occupancy by the test compound which blocks covalent probe binding. The difference between the MPS and the TPS, divided by the MPS gave the target occupancy by the test compound. This ratio was then expressed as a percent occupancy. Results from this assay are provided in Table A below under the column “Occupancy EC50 (nM) HT-29.”

[3] = tested on: A375 cells (malignant melanoma); test: Inhibition of cancer cell proliferation, A375 (CellTiterGlo, 72 hours); assay type: cell-based; conditions: Homo sapiens, A-375
Outline: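 A375 melanoma cells, 3000/well, exposed 72 h at 37 °C to compound in 3-fold serial dilutions (solution added as 2× stock starting at 5,000 nM in serum-free DMEM). CellTiterGlo luminescence converted to cell number via standard curve; % inhibition vs untreated control, GI50 from curve fit.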

[4] = tested on: HCT116 cells (colorectal carcinoma); test: Inhibition of cancer cell proliferation, HCT116 (CellTiterGlo, 72 hours); assay type: cell-based; conditions: Homo sapiens, HCT-116
Method: Measurement of Inhibition of Cancer Cell Proliferation (HCT116/Colorectal Carcinoma)
The following protocol used a HCT116 cell line, which cell line is a model for colorectal carcinoma. HCT116 cells were split and 3000 cells in 100 μl of growth medium were added per well of a flat-bottom 96-well plate. A two-fold test compound solution in serum-free RPM1640 was made, starting at 5,000 nM. Then, 3-fold serial dilutions were made across the plate from well 1 to well 11. Well 12, the last well in a row on the plate, was left as untreated control. 100 μl compound solutions were then transferred to the wells, so the total volume of media was 200 μl per well. Plates were returned to a 37° C. incubator, and the cells were cultured for 72 hours. To measure cell proliferation after 72 hours, media was discarded from the plates, 50 μl/well of fresh medium was added, and 50 μl CellTiterGlo solution was added (Promega Cat#G7573). The plate was covered with a dark lid and incubated for 10 min. A white sealing tape was applied to the bottom of the plate, and the plate was read in a luminescence plate reader. […] 50 μl CellTiterGlo was added per well, and the plate was read in a luminescence plate reader after 10 min. The reading was plotted vs. cell number to generate a standard curve and the equation of the curve fit. The compound-treated sample luminescence readings were converted to cell numbers using the curve-fit equation. The percent of inhibition, using untreated control as 100% growth, was then calculated. GI50 was then calculated by GraphPad Prism.

[5] = tested on: ERK1/2 phosphorylation of p90RSK in A375 cells; test: Detection of total and phosphor-RSK by MSD ELISA (A375); assay type: cell-based; conditions: Homo sapiens, A-375, read-out: ERK1/ERK2 PRSK A375 EC50
Outline: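 A375 cells serum-starved overnight in DMEM/0.1% FBS, then treated 2 h at 37° C with compound (1000× DMSO dilutions into medium). Lysates captured on RSK antibody-coated MSD plates; phospho-RSK (Ser380) and total RSK detected with SulfoTag secondary antibodies by electrochemiluminescence.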

[6] = tested on: ERK1/2 phosphorylation of p90RSK (pRSK); test: Duration of action after washout: p-RSK inhibition at 6 hr; assay type: cell-based; conditions: 6 hr after washout
Method: Measurement of Duration of Action of Test Compounds
One day before the assay, the cells were split and added at 50,000 cells per well in flat-bottom 96 well plate in 200 μl of growth media. The next day, the medium was discarded, 100 μl medium containing test compounds was added, and the plate was incubated at 37° C. for 120 minutes. The medium was discarded, and the cells were rinsed 3 times with PBS followed by addition of 200 μl of fresh grow medium. The plate was returned to a 37° C. incubator, and separate cell lysates were made using MSD lysis buffer after 0.25, 0.5, 1, 2, 4, 6, 8 and 18 or 24 hours. Thereafter, pRSK was measured as described above in the section entitled pRSK MSD Assay.

T1 sequence (P27361 whole entry): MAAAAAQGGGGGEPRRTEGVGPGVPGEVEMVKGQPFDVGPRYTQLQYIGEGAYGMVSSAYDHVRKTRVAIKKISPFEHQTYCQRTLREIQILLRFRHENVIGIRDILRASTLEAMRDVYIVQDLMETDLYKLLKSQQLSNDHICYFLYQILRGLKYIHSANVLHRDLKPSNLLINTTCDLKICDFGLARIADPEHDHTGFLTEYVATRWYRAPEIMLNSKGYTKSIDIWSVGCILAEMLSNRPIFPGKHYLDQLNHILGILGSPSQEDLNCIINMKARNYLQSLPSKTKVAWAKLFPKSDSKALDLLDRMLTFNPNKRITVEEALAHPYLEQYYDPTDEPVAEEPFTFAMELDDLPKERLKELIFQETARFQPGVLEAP
T2 sequence (P27361 whole entry): as above

SMILES | GI50 [1] [nM] | EC50 [2] [nM] | ERK1 Mass Mod (%) (Erk1) | IC50 (MEK1 activated ERK1) [nM] | EC50 (ERK1/ERK2) [nM] | GI50 [3] [nM] | GI50 [4] [nM] | EC50 [5] [nM] | p-RSK inhibition at 6 hr (%) [6]
C=CC(=O)Nc1ccccc1Nc1nc(N[C@@H]2CCC[C@H](C(N)=O)C2)ncc1C(F)(F)F (racemic) [Compound I-2, Rac-cis-3-((4-((2-acrylamidophenyl)amino)-5-(trifluoromethyl)pyrimidin-2-yl)amino)cyclohexanecarboxamide] | 101 to 500 | < 100 | E (a mass modification of ≧70%) | < 100 | < 100 |  |  |  | 
C=CC(=O)Nc1ccccc1Nc1nc(NC2CCCC(C(N)=O)C2)ncc1Cl (racemic) [Compound I-102] | 101 to 500 | < 100 | E (a mass modification of ≧70%) |  | < 100 |  |  |  | 
C=CC(=O)Nc1ccccc1Nc1nc(N[C@H]2CCCN(C(=O)CO)C2)ncc1C(F)(F)F [Compound I-15, (S)—N-(2-((2-((1-(2-hydroxyacetyl)piperidin-3-yl)amino)-5-(trifluoromethyl)pyrimidin-4-yl)amino)phenyl)acrylamide] | < 100 |  |  |  |  | < 100 | < 100 | < 100 | E (a p-RSK inhibition percent of ≧70%)
C=CC(=O)Nc1ccccc1Nc1nc(Nc2cc(CO)c(F)cc2C)ncc1C(F)(F)F [Compound I-77, N-(2-((2-((4-Fluoro-5-(hydroxymethyl)-2-methylphenyl)amino)-5-(trifluoromethyl)pyrimidin-4-yl)amino)phenyl)acrylamide] | < 100 | 101 to 500 |  |  | < 100 | 101 to 500 | 101 to 500 |  | 
C=CC(=O)Nc1cc(F)ccc1Nc1nc(Nc2ccc(F)cc2C)ncc1Cl [Compound I-212, N-(2-((5-chloro-2-((4-fluoro-2-methylphenyl)amino)pyrimidin-4-yl)amino)-5-fluorophenyl)acrylamide] | 101 to 500 | < 100 | F (a mass modification of 31-69%) |  | < 100 |  |  |  | 
